Measurements reported in patent US20080145858A1, “DETECTION AND IDENTIFICATION OF TOXICANTS BY MEASUREMENT OF GENE […]” (priority 2003, published 2008).
Marks after values point to notes of the source that are not given here.

System: Xenopus laevis cleavage stage embryos (stage 8)
Assay: Xenopus cDNA microarray, differential gene expression after PMA treatment during cleavage stage (Group I)
Assay type: in vivo
Settings: for Normalization by Landmarks (1.6) / Normalization by all Data Points (1.3) / Ratio of Medians (Cy5/Cy3) First Spot / Ratio of Medians (Cy5/Cy3) Mean / Ratio of Medians (Cy5/Cy3) Second Spot / Normalized by Landmarks (1.59) / Normalized by all Data Points (1.28) / (CY3/CY5) by Landmarks (1.6) / (CY3/CY5) by all Data Points (1.3): PMA 100 ng/ml; for % increase of mRNA expression by Microarray analysis (NF by all data point): Stage 8
From the text: Specifically, the method and screen of the present invention function as follows. EST clones produced from Xenopus laevis unfertilized eggs were used in the present study with ˜1,200 EST clones from a 18,500 EST clone set selected for production of a Xenopus cDNA microarray. The Xenopus microarray was used to measure the effect of chemical treatment on Xenopus embryo gene regulation. The chemical treatment was a phorbol ester, PMA. Xenopus eggs were obtained from females induced for ovulation and fertilized in vitro. Control Xenopus laevis embryos were allowed to develop to stage 8 blastula or stage 15 neurula. Treated embryos were exposed to PMA during cleavage stage or during neurulation with end points of blastula (stage 8) or neurula (stage 15). Specifically, PMA 100 ng/ml was added to the incubation media during cleavage stages for evaluation in stage 8 embryo or PMA was added during neural induction for evaluation in stage 15 embryos. RNA extracted from the embryos was used to generate fluorescent cDNA probes for Xenopus microarray analyses to measure differential gene expression with and without the phorbol ester treatment. Analysis was performed using paired RNA samples to compare PMA-treated and untreated embryos: Group I measured the effects of PMA-treatment during the cleavage stage in stage 8 embryos and Group II measured the effects of PMA-treatment during neurulation in stage 15 embryos. Group III measured the change in gene expression between stage 8 and stage 15 embryos.
cDNA fragments were obtained by PCR replication of Xenopus laevis unfertilized egg cDNA inserts, purified, quantitated and loaded onto glass chips by robotics. In addition to the selected ˜1,200 genes, 64 lambda Q gene, an internal control cDNA (Genomic Solutions, Inc., Ann Arbor, Mich.) was loaded on the chip. The insert DNA from ˜1,200 clones were PCR amplified using forward and reverse primers (GF.200 primers, Research Genetics, Huntsville, Ala.). A second PCR was carried out using 1 μl of the primary PCR (20 μl) for template. Excess dNTPs, polymerase and other PCR artifacts were removed from the secondary PCR reactions using Millipore Multiscreen plates (Millipore Corporation, Bedford, Mass.) using the standard protocol. The purity of the PCR products was assessed by electrophoresis and documented using an Alphalmager 1000 Digital Imaging System (Alpha Innotech Corporation, San Leandro, Calif.). The DNA obtained by PCR was quantitated using PicoGreen (Molecular Probes, Eugene, Oreg.). The DNA was denatured and arrayed onto amino-silane coated microscope slides (CMT-GAPS coated slides, Corning, Corning, N.Y.) using a Flexys robotic workstation (Genomic Solutions Inc.). The ˜1,200 PCR products were arrayed in duplicate on each slide and cross-linked. Each gene chip contained duplicate cDNA samples.
Total RNA was prepared from embryos treated in three separate dishes per treatment group that were pooled. Total RNA was isolated from the frog embryos (1,200 embryos for each probe production) using TRIzol extraction (Gibco BRL, Grand Island, N.Y.) and Qiagen RNeasy kits (Qiagen, Valencia, Calif.). The ethanol precipitated RNA was resuspended in RNase-free water, quantitated with RiboGreen (Molecular Probes, Eugene, Oreg.). Total RNA was further purified using oligoTex mRNA maxi kit (Qiagen Co.) with the bound mRNA eluted with minimum volume of elution buffer and precipitated with ethanol. The recovery rate of mRNA by the ethanol precipitation method was ˜70%. Cy3- or Cy5-tagged probes were produced from an mRNA mixture (20 μl) of Xenopus mRNA (5 μg) and lambda Q gene mRNA (3.5 ng) reverse-transcribed with oligo(dT)18-22 primer and dNTPs and the reverse-transcribed cDNA was cross-linked with Cy3 or Cy5 as described in Clontech Atlas™ Glass Fluorescent Labeling kit manual (www.clontech.com). After hydrolysis of the RNA and purification of the probe (Centricon 50, Millipore, Bedford, Mass.), the cDNA in TE buffer was quantitated by absorbance at 260 nm. […]

[1] = cleavage and neurulation stage embryos
[2] = ras-related protein gene, stage 8

SMILES: CCCCCCCCCCCCCC(=O)O[C@@H]1[C@@H](C)[C@@]2(O)[C@@H](C=C(CO)C[C@]3(O)C(=O)C(C)=C[C@@H]23)[C@@H]2C(C)(C)[C@]12OC(C)=O [PMA, phorbol 12-myristate 12-acetate]
- Normalization by Landmarks (1.6) (PBX0143D10 mRNA, stage 8): 0.64
- Normalization by all Data Points (1.3) (PBX0143D10 mRNA, stage 8): 0.40
- Ratio of Medians (Cy5/Cy3) First Spot (PBX0143D10 mRNA, stage 8): 0.22
- Ratio of Medians (Cy5/Cy3) Mean (PBX0143D10 mRNA, stage 8): 0.31 ± 0.11
- Ratio of Medians (Cy5/Cy3) Second Spot (PBX0143D10 mRNA, stage 8): 0.40
- Normalized by Landmarks (1.59) (PBX0143E06 mRNA, stage 8): 3.85
- Normalized by all Data Points (1.28) (PBX0143E06 mRNA, stage 8): 3.10
- Ratio of Medians (Cy5/Cy3) First Spot (PBX0143E06 mRNA, stage 8): 2.92
- Ratio of Medians (Cy5/Cy3) Mean (PBX0143E06 mRNA, stage 8): 2.42 ± 0.50
- Ratio of Medians (Cy5/Cy3) Second Spot (PBX0143E06 mRNA, stage 8): 1.91
- (CY3/CY5) by Landmarks (1.6) (PBX0144A09 mRNA, stage 8): 6.45
- (CY3/CY5) by all Data Points (1.3) (PBX0144A09 mRNA, stage 8): 10.33
- Normalization by Landmarks (1.6) (PBX0144A09 mRNA, stage 8): 0.15
- Normalization by all Data Points (1.3) (PBX0144A09 mRNA, stage 8): 0.10
- Ratio of Medians (Cy5/Cy3) First Spot (PBX0144A09 mRNA, stage 8): 0.06
- Ratio of Medians (Cy5/Cy3) Mean (PBX0144A09 mRNA, stage 8): 0.07 ± 0.02 ^a
- Ratio of Medians (Cy5/Cy3) Second Spot (PBX0144A09 mRNA, stage 8): 0.09
- Normalized by Landmarks (1.59) (PBX0144C12 mRNA, stage 8): 5.55
- Normalized by all Data Points (1.28) (PBX0144C12 mRNA, stage 8): 4.47
- Ratio of Medians (Cy5/Cy3) First Spot (PBX0144C12 mRNA, stage 8): 4.75
- Ratio of Medians (Cy5/Cy3) Mean (PBX0144C12 mRNA, stage 8): 3.49 ± 1.26
- Ratio of Medians (Cy5/Cy3) Second Spot (PBX0144C12 mRNA, stage 8): 2.23
- Normalized by Landmarks (1.59) (PBX0144E04 mRNA, stage 8): 5.45
- Normalized by all Data Points (1.28) (PBX0144E04 mRNA, stage 8): 4.38
- Ratio of Medians (Cy5/Cy3) First Spot (PBX0144E04 mRNA, stage 8): 3.67
- Ratio of Medians (Cy5/Cy3) Mean (PBX0144E04 mRNA, stage 8): 3.42 ± 0.25
- Ratio of Medians (Cy5/Cy3) Second Spot (PBX0144E04 mRNA, stage 8): 3.17
- Normalized by Landmarks (1.59) (PBX0145A06 mRNA, stage 8): 4.55
- Normalized by all Data Points (1.28) (PBX0145A06 mRNA, stage 8): 3.66
- Ratio of Medians (Cy5/Cy3) First Spot (PBX0145A06 mRNA, stage 8): 2.27
- Ratio of Medians (Cy5/Cy3) Mean (PBX0145A06 mRNA, stage 8): 2.86 ± 0.59
- Ratio of Medians (Cy5/Cy3) Second Spot (PBX0145A06 mRNA, stage 8): 3.44
- (CY3/CY5) by Landmarks (1.6) (PBX0145A10 mRNA, stage 8): 1.93
- (CY3/CY5) by all Data Points (1.3) (PBX0145A10 mRNA, stage 8): 3.10
- Normalization by Landmarks (1.6) (PBX0145A10 mRNA, stage 8): 0.52
- Normalization by all Data Points (1.3) (PBX0145A10 mRNA, stage 8): 0.32
- Ratio of Medians (Cy5/Cy3) First Spot (PBX0145A10 mRNA, stage 8): 0.28
- Ratio of Medians (Cy5/Cy3) Mean (PBX0145A10 mRNA, stage 8): 0.25 ± 0.03
- Ratio of Medians (Cy5/Cy3) Second Spot (PBX0145A10 mRNA, stage 8): 0.22
- (CY3/CY5) by Landmarks (1.6) (PBX0145E05 mRNA, stage 8): 5.43
- (CY3/CY5) by all Data Points (1.3) (PBX0145E05 mRNA, stage 8): 8.69
- Normalization by Landmarks (1.6) (PBX0145E05 mRNA, stage 8): 0.18
- Normalization by all Data Points (1.3) (PBX0145E05 mRNA, stage 8): 0.12
- Ratio of Medians (Cy5/Cy3) First Spot (PBX0145E05 mRNA, stage 8): 0.11
- Ratio of Medians (Cy5/Cy3) Mean (PBX0145E05 mRNA, stage 8): 0.09 ± 0.02
- Ratio of Medians (Cy5/Cy3) Second Spot (PBX0145E05 mRNA, stage 8): 0.07
- (CY3/CY5) by Landmarks (1.6) (PBX0145E09 mRNA, stage 8): 2.76
- (CY3/CY5) by all Data Points (1.3) (PBX0145E09 mRNA, stage 8): 4.42
- Normalization by Landmarks (1.6) (PBX0145E09 mRNA, stage 8): 0.36
- Normalization by all Data Points (1.3) (PBX0145E09 mRNA, stage 8): 0.23
- Ratio of Medians (Cy5/Cy3) First Spot (PBX0145E09 mRNA, stage 8): 0.16
- Ratio of Medians (Cy5/Cy3) Mean (PBX0145E09 mRNA, stage 8): 0.17 ± 0.02
- Ratio of Medians (Cy5/Cy3) Second Spot (PBX0145E09 mRNA, stage 8): 0.19
- (CY3/CY5) by Landmarks (1.6) (PBX0145E10 mRNA, stage 8): 2.85
- (CY3/CY5) by all Data Points (1.3) (PBX0145E10 mRNA, stage 8): 4.57
- Normalization by Landmarks (1.6) (PBX0145E10 mRNA, stage 8): 0.35
- Normalization by all Data Points (1.3) (PBX0145E10 mRNA, stage 8): 0.22
- Ratio of Medians (Cy5/Cy3) First Spot (PBX0145E10 mRNA, stage 8): 0.21
- Ratio of Medians (Cy5/Cy3) Mean (PBX0145E10 mRNA, stage 8): 0.17 ± 0.05
- Ratio of Medians (Cy5/Cy3) Second Spot (PBX0145E10 mRNA, stage 8): 0.12
- Normalized by Landmarks (1.59) (PBX0145H10 mRNA, stage 8): 3.78
- Normalized by all Data Points (1.28) (PBX0145H10 mRNA, stage 8): 3.05
- Ratio of Medians (Cy5/Cy3) First Spot (PBX0145H10 mRNA, stage 8): 2.90
- Ratio of Medians (Cy5/Cy3) Mean (PBX0145H10 mRNA, stage 8): 2.38 ± 0.52
- Ratio of Medians (Cy5/Cy3) Second Spot (PBX0145H10 mRNA, stage 8): 1.86
- expression of gene of EST PBX0144A09 [1]: highly down-regulated
- expression of genes of ESTs PBX0134G08, PBX0144C12, PBX0136C09, PBX0134H03, PBX0136F03, PBX0143E06 and PBX0137G06 [1]: highly up-regulated
- up-regulation of the 25 highly up-regulated Xenopus genes (cleavage stage, treated vs untreated embryos, Table 1, Panel A): 3-8 fold
- % increase of mRNA expression by Microarray analysis (NF by all data point) (gene PBX0135A08): 270%^a % of control
- % increase of mRNA expression by Microarray analysis (NF by all data point) (gene PBX013409): 380% of control
- RAB-1A expression ratio [2]: 2.10
- RAB-9 expression [2]: down-regulated
- RAP-1B expression [2]: down-regulated
- Phosphatase 2A regulatory subunit expression (PBX0140D01) (stage 8): 3 fold
